Measurements from patent US20260285850A1, “SUBSTITUTED OXAZOLIDINONES AND IMIDAZOLINONES AS HERBICIDES” (FMC CORPORATION, priority 2023, published 2026).

Key:
Format in all cases: in vivo
[1] = test system: barnyardgrass (Echinochloa crus-galli); assay: Test A preemergence soil spray, visual injury rating 0-100; details: 10 days, 0 = no effect, 100 = complete control
Outline: (§1)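 Preemergence directed soil spray or postemergence spray (2-10 cm, 1-2 leaf); loam/sand mix; compound in non-phytotoxic solvent + surfactant. Greenhouse, 10 d. Visual injury vs untreated, 0 = none, 100 = complete control.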

[2] = test system: blackgrass (Alopecurus myosuroides); assay: as above; details: 10 days, 0 = no effect, 100 = complete control
Outline: as §1

corn (Zea mays) [3] = assay: as above; details: 10 days, 0 = no effect, 100 = complete control
Outline: as §1

kochia (Bassia scoparia) [4] = assay: as above; details: 10 days, 0 = no effect, 100 = complete control
Outline: as §1

[5] = test system: oat, wild (wild oat, Avena fatua); assay: as above; details: 10 days, 0 = no effect, 100 = complete control
Outline: as §1

[6] = test system: palmer (palmer amaranth, palmer pigweed, Amaranthus palmeri); assay: as above; details: 10 days, 0 = no effect, 100 = complete control
Outline: as §1

[7] = test system: ragweed (common ragweed, Ambrosia artemisiifolia); assay: as above; details: 10 days, 0 = no effect, 100 = complete control
Outline: as §1

[8] = test system: ryegrass, Italian (italian ryegrass, Lolium multiflorum); assay: as above; details: 10 days, 0 = no effect, 100 = complete control
Outline: as §1

soybean (Glycine max) [9] = assay: as above; details: 10 days, 0 = no effect, 100 = complete control
Outline: as §1

[10] = test system: wheat (Triticum aestivum); assay: as above; details: 10 days, 0 = no effect, 100 = complete control
Outline: as §1

[11] = test system: barnyardgrass (Echinochloa crus-galli); assay: Test A postemergence application, visual injury rating 0-100; details: Postemergence
Outline: as §1

[12] = test system: blackgrass (Alopecurus myosuroides); assay: as above; details: Postemergence
Outline: as §1

corn (Zea mays) [13] = assay: as above; details: Postemergence
Outline: as §1

[14] = test system: galium (catchweed bedstraw, Galium aparine); assay: as above; details: Postemergence
Outline: as §1

[15] = test system: horseweed (Erigeron canadensis); assay: as above; details: Postemergence
Outline: as §1

kochia (Bassia scoparia) [16] = assay: as above; details: Postemergence
Outline: as §1

[17] = test system: oat, wild (wild oat, Avena fatua); assay: as above; details: Postemergence
Outline: as §1

[18] = test system: palmer (palmer amaranth, palmer pigweed, Amaranthus palmeri); assay: as above; details: Postemergence
Outline: as §1

[19] = test system: ragweed (common ragweed, Ambrosia artemisiifolia); assay: as above; details: Postemergence
Outline: as §1

[20] = test system: ryegrass, Italian (italian ryegrass, Lolium multiflorum); assay: as above; details: Postemergence
Outline: as §1

soybean (Glycine max) [21] = assay: as above; details: Postemergence
Outline: as §1

[22] = test system: wheat (Triticum aestivum); assay: as above; details: Postemergence
Outline: as §1

[23] = test system: barnyardgrass (Echinochloa crusgalli); assay: Test B flooded paddy test, visual plant response rating 0-100; details: 250 g ai/ha, Flood, applied to paddy water, evaluated after 13 days
Outline: (§2)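 2-leaf plants; flood 3 cm over soil; compound dosed into paddy water; depth kept constant; greenhouse 13 d; visual scoring vs controls. Dash = no result.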

[24] = test system: ducksalad (Heteranthera limosa); assay: as above; details: 250 g ai/ha, Flood, applied to paddy water, evaluated after 13 days
Outline: as §2

rice (Oryza sativa) = assay: as above; details: 250 g ai/ha, Flood, applied to paddy water, evaluated after 13 days
Outline: as §2

[25] = test system: sedge, umbrella (small-flower umbrella sedge, Cyperus difformis); assay: as above; details: 250 g ai/ha, Flood, applied to paddy water, evaluated after 13 days
Outline: as §2

[26] = 31 g ai/ha, greenhouse 10 days, 0 no effect, 100 complete control
[27] = 125 g ai/ha, 10 days, 0 is no effect, 100 is complete control

CC(C)OC(=O)C1=CCC(NC(=O)C2(C)CN(c3cc(Cl)cc(Cl)c3)C(=O)O2)C1 (stereo not drawn) [Compound 70]
20: Corn plant response rating (0 to 100 scale) (corn (Zea mays) [3]; 125 g ai/ha) | Oat, Wild plant response rating (0 to 100 scale) ([5]; 125 g ai/ha)
0: Corn plant response rating (0-100) (corn (Zea mays) [3]; 31 g ai/ha) | Kochia plant response rating (0-100) (kochia (Bassia scoparia) [4]; 31 g ai/ha) | Oat, Wild plant response rating (0-100) ([5]; 31 g ai/ha) | Ryegrass, Italian plant response rating (0-100) ([8]; 31 g ai/ha) | Soybean plant response rating (0-100) (soybean (Glycine max) [9]; 31 g ai/ha) | Wheat plant response rating (0-100) ([10]; 31 g ai/ha) | Horseweed plant response rating (0 to 100 scale) [15, 26] | Horseweed plant response rating (0 to 100 scale) [15, 27] | Ragweed plant response rating (0 to 100 scale) [19, 26]
30: Barnyardgrass plant response rating (0-100) ([1]; 31 g ai/ha) | Blackgrass plant response rating (0 to 100 scale) ([2]; 125 g ai/ha) | Amaranth, Palmer plant response rating (0-100) ([6]; 31 g ai/ha) | Soybean plant response rating (0 to 100 scale) (soybean (Glycine max) [9]; 125 g ai/ha) | Oat, Wild plant response rating (0 to 100 scale) [17, 26]
40: Kochia plant response rating (0 to 100 scale) (kochia (Bassia scoparia) [4]; 125 g ai/ha)
100: Corn plant response rating (0 to 100 scale) (corn (Zea mays) [13]; [27])
60: Plant response rating, Rice (0 to 100 scale, 0 is no effect and 100 is complete control) (rice (Oryza sativa))
80: Blackgrass plant response rating (0 to 100 scale) [12, 27] | Galium plant response rating (0 to 100 scale) [14, 26] | Galium plant response rating (0 to 100 scale) [14, 27] | Kochia plant response rating (0 to 100 scale) (kochia (Bassia scoparia) [16]; [26]) | Kochia plant response rating (0 to 100 scale) (kochia (Bassia scoparia) [16]; [27]) | Oat, Wild plant response rating (0 to 100 scale) [17, 27] | Soybean plant response rating (0 to 100 scale) (soybean (Glycine max) [21]; [26]) | Wheat plant response rating (0 to 100 scale) [22, 26]
98: Plant response rating, Sedge, Umbrella (0 to 100 scale, 0 is no effect and 100 is complete control) [25]
10: Blackgrass plant response rating (0-100) ([2]; 31 g ai/ha) | Ragweed plant response rating (0-100) ([7]; 31 g ai/ha) | Ragweed plant response rating (0 to 100 scale) ([7]; 125 g ai/ha)
70: Ryegrass, Italian plant response rating (0 to 100 scale) ([8]; 125 g ai/ha) | Wheat plant response rating (0 to 100 scale) ([10]; 125 g ai/ha) | Ryegrass, Italian plant response rating (0 to 100 scale) [20, 26] | Ryegrass, Italian plant response rating (0 to 100 scale) [20, 27]
65: Plant response rating, Ducksalad (0 to 100 scale, 0 is no effect and 100 is complete control) [24]
50: Blackgrass plant response rating (0 to 100 scale) [12, 26] | Ragweed plant response rating (0 to 100 scale) [19, 27] | Plant response rating, Barnyardgrass (0 to 100 scale, 0 is no effect and 100 is complete control) [23]
90: Barnyardgrass plant response rating (0 to 100 scale) ([1]; 125 g ai/ha) | Amaranth, Palmer plant response rating (0 to 100 scale) ([6]; 125 g ai/ha) | Barnyardgrass plant response rating (0 to 100 scale) [11, 26] | Barnyardgrass plant response rating (0 to 100 scale) [11, 27] | Corn plant response rating (0 to 100 scale) (corn (Zea mays) [13]; [26]) | Amaranth, Palmer / Pigweed, Palmer plant response rating (0 to 100 scale) [18, 26] | Amaranth, Palmer / Pigweed, Palmer plant response rating (0 to 100 scale) [18, 27] | Soybean plant response rating (0 to 100 scale) (soybean (Glycine max) [21]; [27]) | Wheat plant response rating (0 to 100 scale) [22, 27]
